Data set [1] deals with Calcium/calmodulin-dependent protein kinase type II subunit beta (Homo sapiens) (UniProt Q13554). The data set can be described thus: Selectivity interaction (Kinase panel (Z-LYTE Assay)) EUB0001632a CAMK2B. The conditions noted are these: at 10 µM.
The target of data set [2] is Serine/threonine-protein kinase 26 (Homo sapiens, UniProt Q9P289). The data set can be described thus: Selectivity interaction (Kinase panel (KiNativ target engagement assay in Jurkat cells)) EUB0001635a STK26. The conditions noted are these: Selectivity number of off-targets 0.0, Selectivity number of targets 233.0, Source Knowledge https://www.sciencedirect.com/science/article/pii/S2451945619300674?via%3Dihub, at 1 µM. It is filed as cell-based.

Data set [3] deals with Serine/threonine-protein kinase MARK1 (Homo sapiens) (UniProt Q9P0L2). The data set can be described thus: Selectivity interaction (Kinase panel (KiNativ target engagement assay in Jurkat cells)) EUB0001635a MARK1. It is filed as cell-based. The settings on record: at 1 µM.
In data set [4] the target is RAC-beta serine/threonine-protein kinase (Homo sapiens) (UniProt P31751). The settings on record: at 10 µM.
The target of data set [5] is MAP kinase-interacting serine/threonine-protein kinase 2 (Homo sapiens, UniProt Q9HBH9). The conditions noted are these: at 10 µM.
In data set [6] the test system is Epidermal growth factor receptor (Homo sapiens), P00533 [UNDEFINED MUTATION]. The data set can be described thus: Selectivity interaction (KinomeScan (DiscoverX)) EUB0000655a EGFR. The conditions noted are these: at 10 µM.
The target in data set [7] is MAO-A (MAOA) (Homo sapiens, UniProt P21397). Kind of data set: Selectivity interaction (Safety Panel 44tm (Eurofins)) EUB0000162b MAOA. The conditions noted are these: at 10 µM, read-out: % of control.
For data set [8], the target named is Serine/threonine-protein kinase WNK2 (Homo sapiens) (UniProt Q9Y3S1). Kind of data set: Selectivity interaction (ActivX KiNativ screen (kinase selectivity in THP-1 cell lysates)) EUB0000639a WNK2. The data set is classed as subcellular. The settings on record: lysate, at 0.01 µM.
Data set [9] concerns the target Cyclin-dependent kinase 14 (Homo sapiens) (UniProt O94921). Kind of data set: Selectivity interaction (ActivX KiNativ screen (kinase selectivity in THP-1 cell lysates)) EUB0000639a CDK14. The data set is classed as subcellular. The settings on record: lysate, at 5 µM.
For data set [10], the target named is Serine/threonine-protein kinase N2 (Homo sapiens, UniProt Q16513). Kind of data set: Selectivity interaction (Kinase screening (Upstate/Millipore)) EUB0000604a PKN2.
Data set [11] has as its target SRSF protein kinase 1 (Homo sapiens, UniProt Q96SB4). The data set can be described thus: Selectivity interaction (KinomeScan (DiscoverX)) EUB0001049a SRPK1. The conditions noted are these: at 1 µM.
The target of data set [12] is T1, Histone-lysine N-methyltransferase EHMT2 (Homo sapiens) (UniProt Q96KQ7).
T1 sequence (whole entry): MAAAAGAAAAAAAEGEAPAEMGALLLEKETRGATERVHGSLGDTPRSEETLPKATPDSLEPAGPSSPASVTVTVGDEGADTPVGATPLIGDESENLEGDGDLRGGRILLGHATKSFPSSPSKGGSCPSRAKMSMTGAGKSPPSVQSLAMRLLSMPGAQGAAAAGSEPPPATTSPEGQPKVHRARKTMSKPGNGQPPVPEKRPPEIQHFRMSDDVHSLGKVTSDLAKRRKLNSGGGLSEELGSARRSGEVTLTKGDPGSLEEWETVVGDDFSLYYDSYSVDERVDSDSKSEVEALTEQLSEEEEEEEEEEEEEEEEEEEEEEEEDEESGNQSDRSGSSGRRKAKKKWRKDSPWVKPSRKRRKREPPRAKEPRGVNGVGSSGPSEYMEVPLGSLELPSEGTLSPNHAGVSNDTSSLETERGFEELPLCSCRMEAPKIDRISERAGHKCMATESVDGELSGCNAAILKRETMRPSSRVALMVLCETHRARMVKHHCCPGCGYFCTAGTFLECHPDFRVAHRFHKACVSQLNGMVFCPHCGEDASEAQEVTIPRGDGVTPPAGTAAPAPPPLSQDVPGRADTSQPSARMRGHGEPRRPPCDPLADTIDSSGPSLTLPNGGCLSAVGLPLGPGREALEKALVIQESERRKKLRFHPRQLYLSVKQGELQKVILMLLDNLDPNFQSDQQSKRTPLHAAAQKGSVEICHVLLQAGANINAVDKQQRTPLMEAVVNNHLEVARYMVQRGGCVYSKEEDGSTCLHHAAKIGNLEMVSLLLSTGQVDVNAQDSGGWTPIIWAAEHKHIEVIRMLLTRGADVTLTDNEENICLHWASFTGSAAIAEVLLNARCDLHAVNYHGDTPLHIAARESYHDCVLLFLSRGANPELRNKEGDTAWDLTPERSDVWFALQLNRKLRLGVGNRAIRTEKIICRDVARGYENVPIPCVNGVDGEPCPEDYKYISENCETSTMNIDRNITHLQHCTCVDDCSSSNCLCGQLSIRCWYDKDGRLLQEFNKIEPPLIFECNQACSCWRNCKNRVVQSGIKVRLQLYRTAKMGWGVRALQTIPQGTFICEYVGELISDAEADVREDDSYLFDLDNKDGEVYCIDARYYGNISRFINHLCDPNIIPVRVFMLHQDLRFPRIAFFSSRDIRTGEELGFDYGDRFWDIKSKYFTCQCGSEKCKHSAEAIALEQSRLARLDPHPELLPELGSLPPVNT
Kind of data set: Selectivity interaction (Transferase panel (protein, RNA, and DNA methyltransferases. and EP300 (acetyltransferase))) EUB0000270b EHMT2.

Data set [13] concerns the target T2, SNF-related serine/threonine-protein kinase (Homo sapiens) (UniProt Q9NRH2).
T2 sequence (whole entry): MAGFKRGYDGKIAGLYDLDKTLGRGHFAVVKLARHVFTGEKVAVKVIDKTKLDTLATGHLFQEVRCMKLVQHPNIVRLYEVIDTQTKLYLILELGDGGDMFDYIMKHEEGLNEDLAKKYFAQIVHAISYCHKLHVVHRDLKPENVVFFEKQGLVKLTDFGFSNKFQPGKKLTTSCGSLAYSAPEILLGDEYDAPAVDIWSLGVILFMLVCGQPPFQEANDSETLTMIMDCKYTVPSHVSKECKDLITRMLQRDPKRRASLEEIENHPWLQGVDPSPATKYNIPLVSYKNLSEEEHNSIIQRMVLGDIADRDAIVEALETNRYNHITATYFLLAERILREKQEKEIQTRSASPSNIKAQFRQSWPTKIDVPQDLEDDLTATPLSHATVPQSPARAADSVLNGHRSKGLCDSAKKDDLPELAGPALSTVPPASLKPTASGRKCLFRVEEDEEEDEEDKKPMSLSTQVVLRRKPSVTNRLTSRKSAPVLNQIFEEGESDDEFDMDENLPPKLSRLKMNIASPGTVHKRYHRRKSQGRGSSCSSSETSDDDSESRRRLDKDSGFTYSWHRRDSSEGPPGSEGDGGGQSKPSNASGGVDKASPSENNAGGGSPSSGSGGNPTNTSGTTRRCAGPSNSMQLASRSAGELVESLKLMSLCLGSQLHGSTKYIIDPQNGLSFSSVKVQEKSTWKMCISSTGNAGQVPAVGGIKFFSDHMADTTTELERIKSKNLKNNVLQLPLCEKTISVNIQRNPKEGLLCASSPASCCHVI
Kind of data set: Selectivity interaction (KinomeScan (DiscoverX)) EUB0000092b SNRK. The conditions noted are these: at 10 µM.

The structures appear in SMILES notation. A value given as a limit tells only on which side of the number the result lay.

Chain of Serine/threonine-protein kinase N2 (Q16513 whole entry, looked up): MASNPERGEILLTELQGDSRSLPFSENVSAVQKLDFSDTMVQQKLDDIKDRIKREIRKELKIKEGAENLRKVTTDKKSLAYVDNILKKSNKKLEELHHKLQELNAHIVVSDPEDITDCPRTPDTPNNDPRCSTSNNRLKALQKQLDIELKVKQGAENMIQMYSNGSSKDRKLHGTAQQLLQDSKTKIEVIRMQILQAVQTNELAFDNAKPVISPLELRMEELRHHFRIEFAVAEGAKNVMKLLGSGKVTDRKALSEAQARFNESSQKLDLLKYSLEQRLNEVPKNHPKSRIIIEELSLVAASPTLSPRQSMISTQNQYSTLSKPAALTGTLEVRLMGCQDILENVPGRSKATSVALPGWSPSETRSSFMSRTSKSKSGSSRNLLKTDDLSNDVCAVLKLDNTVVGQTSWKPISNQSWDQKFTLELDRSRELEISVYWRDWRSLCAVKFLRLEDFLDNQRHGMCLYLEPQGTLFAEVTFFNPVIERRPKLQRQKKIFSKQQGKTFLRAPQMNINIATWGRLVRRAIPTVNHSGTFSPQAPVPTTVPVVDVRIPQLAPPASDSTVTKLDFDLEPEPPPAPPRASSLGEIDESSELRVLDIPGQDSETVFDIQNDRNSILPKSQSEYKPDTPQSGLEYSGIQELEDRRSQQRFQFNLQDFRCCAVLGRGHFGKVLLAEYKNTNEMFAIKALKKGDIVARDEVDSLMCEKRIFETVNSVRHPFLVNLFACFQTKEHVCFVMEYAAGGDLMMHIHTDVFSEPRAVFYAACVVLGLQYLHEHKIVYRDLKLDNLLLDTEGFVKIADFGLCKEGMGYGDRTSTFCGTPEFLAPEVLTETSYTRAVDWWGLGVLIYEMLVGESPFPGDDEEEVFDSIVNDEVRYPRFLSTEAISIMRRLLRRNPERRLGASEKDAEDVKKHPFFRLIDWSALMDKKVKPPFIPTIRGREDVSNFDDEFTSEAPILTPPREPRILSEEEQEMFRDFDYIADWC
Chain of MAP kinase-interacting serine/threonine-protein kinase 2 (Q9HBH9 whole entry, looked up): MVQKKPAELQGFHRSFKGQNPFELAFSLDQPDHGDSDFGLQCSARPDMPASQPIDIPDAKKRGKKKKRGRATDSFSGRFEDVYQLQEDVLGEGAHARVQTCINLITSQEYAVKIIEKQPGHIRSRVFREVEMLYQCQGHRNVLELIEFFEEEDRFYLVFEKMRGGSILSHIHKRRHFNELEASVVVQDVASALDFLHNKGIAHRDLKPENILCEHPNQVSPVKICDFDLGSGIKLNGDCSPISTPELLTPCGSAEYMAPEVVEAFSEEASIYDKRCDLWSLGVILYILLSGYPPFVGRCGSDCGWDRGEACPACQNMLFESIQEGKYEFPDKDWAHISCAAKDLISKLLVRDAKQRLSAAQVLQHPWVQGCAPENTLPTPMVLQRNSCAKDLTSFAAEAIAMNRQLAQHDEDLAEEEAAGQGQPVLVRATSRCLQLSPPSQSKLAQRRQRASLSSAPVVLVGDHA
Chain of Epidermal growth factor receptor (Homo sapiens), P00533 [UNDEFINED MUTATION] (P00533 whole entry, looked up, stated change not applied): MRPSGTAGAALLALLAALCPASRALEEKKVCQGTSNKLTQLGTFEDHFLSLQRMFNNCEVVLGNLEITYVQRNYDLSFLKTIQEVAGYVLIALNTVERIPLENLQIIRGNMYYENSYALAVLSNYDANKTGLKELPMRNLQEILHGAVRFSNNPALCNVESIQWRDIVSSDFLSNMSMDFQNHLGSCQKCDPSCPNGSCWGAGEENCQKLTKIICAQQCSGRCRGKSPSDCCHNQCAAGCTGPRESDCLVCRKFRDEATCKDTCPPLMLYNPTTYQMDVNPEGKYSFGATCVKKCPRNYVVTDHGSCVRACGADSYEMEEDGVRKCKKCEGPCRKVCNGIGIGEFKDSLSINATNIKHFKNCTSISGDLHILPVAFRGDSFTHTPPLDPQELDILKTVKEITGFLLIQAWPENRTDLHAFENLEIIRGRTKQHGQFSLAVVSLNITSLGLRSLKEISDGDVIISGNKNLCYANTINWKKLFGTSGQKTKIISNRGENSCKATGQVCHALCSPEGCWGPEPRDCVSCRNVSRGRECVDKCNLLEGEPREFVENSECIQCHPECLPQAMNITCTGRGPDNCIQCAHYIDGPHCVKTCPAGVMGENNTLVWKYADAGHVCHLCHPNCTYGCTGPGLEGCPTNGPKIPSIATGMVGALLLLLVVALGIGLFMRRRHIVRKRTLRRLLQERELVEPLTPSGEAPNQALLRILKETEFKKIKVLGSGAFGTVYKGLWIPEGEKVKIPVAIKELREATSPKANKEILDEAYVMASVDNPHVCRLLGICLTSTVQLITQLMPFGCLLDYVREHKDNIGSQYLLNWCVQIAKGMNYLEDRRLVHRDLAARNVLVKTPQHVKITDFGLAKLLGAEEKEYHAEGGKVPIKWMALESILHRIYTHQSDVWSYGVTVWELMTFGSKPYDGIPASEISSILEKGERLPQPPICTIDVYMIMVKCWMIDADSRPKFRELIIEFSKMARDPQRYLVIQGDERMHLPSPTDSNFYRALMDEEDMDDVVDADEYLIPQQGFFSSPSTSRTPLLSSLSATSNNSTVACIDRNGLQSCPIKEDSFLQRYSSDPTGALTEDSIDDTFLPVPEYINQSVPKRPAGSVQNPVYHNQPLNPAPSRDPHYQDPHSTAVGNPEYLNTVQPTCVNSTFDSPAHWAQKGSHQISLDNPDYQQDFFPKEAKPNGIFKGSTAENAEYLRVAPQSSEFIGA
Chain of SRSF protein kinase 1 (Q96SB4 whole entry): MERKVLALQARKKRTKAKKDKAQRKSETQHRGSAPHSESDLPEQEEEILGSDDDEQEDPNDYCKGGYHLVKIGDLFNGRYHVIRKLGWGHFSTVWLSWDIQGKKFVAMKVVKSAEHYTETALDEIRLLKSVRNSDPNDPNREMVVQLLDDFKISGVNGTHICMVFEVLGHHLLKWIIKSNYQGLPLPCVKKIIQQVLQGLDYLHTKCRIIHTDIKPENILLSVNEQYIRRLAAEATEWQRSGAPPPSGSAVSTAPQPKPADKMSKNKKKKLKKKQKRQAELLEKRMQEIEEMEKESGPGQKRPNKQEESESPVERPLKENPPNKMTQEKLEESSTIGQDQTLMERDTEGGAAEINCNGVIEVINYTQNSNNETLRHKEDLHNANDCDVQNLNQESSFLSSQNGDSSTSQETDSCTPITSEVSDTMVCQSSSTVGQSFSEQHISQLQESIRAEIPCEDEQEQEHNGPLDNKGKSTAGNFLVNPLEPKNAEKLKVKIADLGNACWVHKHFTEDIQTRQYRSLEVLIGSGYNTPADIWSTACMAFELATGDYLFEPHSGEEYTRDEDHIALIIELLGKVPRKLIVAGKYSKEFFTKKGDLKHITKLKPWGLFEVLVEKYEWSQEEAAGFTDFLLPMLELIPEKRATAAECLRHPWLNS
Chain of Calcium/calmodulin-dependent protein kinase type II subunit beta (Homo sapiens) (Q13554 whole entry): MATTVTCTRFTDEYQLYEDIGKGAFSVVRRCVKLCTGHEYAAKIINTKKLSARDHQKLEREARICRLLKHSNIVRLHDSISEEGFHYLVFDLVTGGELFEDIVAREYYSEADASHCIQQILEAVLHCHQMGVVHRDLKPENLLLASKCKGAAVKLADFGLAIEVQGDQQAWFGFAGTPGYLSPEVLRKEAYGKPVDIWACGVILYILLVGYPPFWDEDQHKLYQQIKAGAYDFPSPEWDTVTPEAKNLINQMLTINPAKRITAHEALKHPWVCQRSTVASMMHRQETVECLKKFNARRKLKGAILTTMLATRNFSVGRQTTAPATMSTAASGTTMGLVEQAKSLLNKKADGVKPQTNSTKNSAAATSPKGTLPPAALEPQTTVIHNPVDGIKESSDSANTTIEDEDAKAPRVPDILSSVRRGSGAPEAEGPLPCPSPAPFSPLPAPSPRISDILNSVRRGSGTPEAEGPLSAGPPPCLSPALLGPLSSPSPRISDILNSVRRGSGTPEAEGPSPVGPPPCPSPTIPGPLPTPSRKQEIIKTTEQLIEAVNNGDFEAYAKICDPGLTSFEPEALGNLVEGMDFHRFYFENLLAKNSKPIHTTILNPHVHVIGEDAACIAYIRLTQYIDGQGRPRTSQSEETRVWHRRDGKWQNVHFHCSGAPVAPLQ
Chain of RAC-beta serine/threonine-protein kinase (Homo sapiens) (P31751 whole entry): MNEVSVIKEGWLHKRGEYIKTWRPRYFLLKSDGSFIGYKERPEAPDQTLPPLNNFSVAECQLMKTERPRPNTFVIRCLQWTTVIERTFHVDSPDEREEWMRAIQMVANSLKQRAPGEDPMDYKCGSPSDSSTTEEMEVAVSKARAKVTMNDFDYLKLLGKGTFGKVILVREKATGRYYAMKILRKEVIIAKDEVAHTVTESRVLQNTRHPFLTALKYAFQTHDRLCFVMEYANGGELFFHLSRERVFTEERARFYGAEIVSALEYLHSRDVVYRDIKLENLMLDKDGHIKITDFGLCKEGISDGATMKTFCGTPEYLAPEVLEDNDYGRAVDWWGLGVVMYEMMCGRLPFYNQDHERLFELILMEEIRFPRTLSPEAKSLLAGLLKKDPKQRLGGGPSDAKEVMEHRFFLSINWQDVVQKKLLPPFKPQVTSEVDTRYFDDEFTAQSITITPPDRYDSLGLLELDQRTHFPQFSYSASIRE
Chain of Serine/threonine-protein kinase 26 (Q9P289 2-416 limits assumed): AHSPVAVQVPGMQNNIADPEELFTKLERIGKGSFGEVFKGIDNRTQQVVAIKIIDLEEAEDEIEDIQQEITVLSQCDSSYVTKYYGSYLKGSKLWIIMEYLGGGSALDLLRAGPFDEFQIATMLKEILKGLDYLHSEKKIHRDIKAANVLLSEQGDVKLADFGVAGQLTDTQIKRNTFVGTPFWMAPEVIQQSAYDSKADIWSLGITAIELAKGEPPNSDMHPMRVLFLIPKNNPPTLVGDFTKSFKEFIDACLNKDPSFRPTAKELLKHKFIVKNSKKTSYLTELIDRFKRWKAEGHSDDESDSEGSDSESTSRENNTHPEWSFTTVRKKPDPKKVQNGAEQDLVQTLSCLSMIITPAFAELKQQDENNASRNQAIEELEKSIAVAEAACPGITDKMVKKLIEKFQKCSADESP

In the case of `Cn1cc(-n2cnc3c(NCc4nc5cc(Cl)c(Cl)cc5[nH]4)nc(N4CCOCC4)nc32)cn1`, in data set [1], the % of control amounted to 1.33%. In the case of `C=CC(=O)Nc1ccc(C(=O)Nc2[nH]nc3c2CN(C(=O)N[C@H](CN(C)C)c2ccccc2)C3(C)C)cc1`, the % of engagement is -26.3% in [2] and 8.7% in data set [3].

For the molecule `Cc1cc([C@@H](C)Nc2ccccc2C(=O)O)c2nc(N3CCOCC3)cc(=O)n2c1` [AZD-6482], the % of control in [4] came to 86%; in data set [5] it was 92%. In the case of `CN(C)CCOc1ccc(-c2nc(-c3ccncc3)c(-c3ccc4c(c3)CC/C4=N\O)[nH]2)cc1`, in data set [6], the % of control was determined as 81%.

Regarding `CN(C)C(=O)Cn1cc(-c2ccc(-c3cncc4ccccc34)cc2)cn1`, in data set [7], the activity was 30%. Consider `CC[C@@H]1[C@H](F)C(=O)N[C@@H]1COc1nccc2cc(C(N)=O)c(OC)cc12` [ZIMLOVISERTIB], for which the % of inhibition is 3.3% in data set [8] and 12.8% in data set [9]. Turning to `Cc1cnc(Nc2ccc(F)cc2Cl)nc1-c1c[nH]c(C(=O)N[C@H](CO)c2cccc(Cl)c2)c1`, in data set [10], the % of inhibition was 14%.

`COc1cc(Nc2nc(C)cc(-c3cnn4nc(OC)ccc34)n2)cc(C(F)(F)F)c1`: the % of control in data set [11] turned out to be 96%. For the molecule `Cc1cc(CN)cc(C)c1-c1ncn(C)c1-c1cncn1C`, the values for the % activity in [12] (at 1 µM) and in data set [12] (at 10 µM) were greater than 90% and greater than 80%, respectively. Take `CCC(=O)N1CCN(c2ccc(-n3c(=O)ccc4cnc5ccc(-c6cnc7ccccc7c6)cc5c43)cc2C(F)(F)F)CC1`: the % of control in data set [13] was determined as 60%.
